Measurements reported in US20240207240A1, “Method for Improving or Treating Cognitive Dysfunction Complicating HIV-associated Cryptococcal Meningitis with Lenalidomide” (The First Affiliated Hospital Zhejiang University School of …, priority 2022, published 2024).
Several values for one entry are separate records, joined by “and”; a condition that tells them apart may be missing. Equal entries are not always repeated.

Experiments:
[1] = test system: intracranial inflammation (CSF WBC, protein, albumin, IgG, glucose, chlorine, pressure); experiment: CSF routine and biochemistry analysis; format: in vivo, human; details: for Chlorine-W 24 / Protein-W 24 / WBC-W 24 / Glucose-W23 / Δ Protein / ΔChlorine / ΔGlucose / ΔWBC: CSF; for Glucose-W23: after treatment; for Δ Protein / ΔChlorine / ΔGlucose / ΔWBC / ΔICP: week 24 - week 0, median
[2] = test system: patients with cognitive dysfunction caused by HIV-associated CM-IRIS; experiment: Center for Epidemiological Research Depression Scale (CES-D); format: in vivo, human; details: before vs after lenalidomide treatment
TNF-α = details: cited from earlier work
[3] = test system: patients with cognitive dysfunction caused by HIV-associated CM-IRIS; experiment: overall cognitive status by MoCA and IHDS scales; format: in vivo, human; details: of 7 patients treated with lenalidomide
Protocol: FIGS. 2A and 2B show results of treating patients with HIV-associated CM who still develop cognitive dysfunction after completing the anti-cryptococcal induction treatment. The patients are treated with lenalidomide. In the treatment, lenalidomide is administered at 25 mg/day for immuno-modulation for a total of 6 treatment cycles, with each cycle including 21 days of lenalidomide administration followed by 7 days of no lenalidomide. The patients are further assigned to a cognitive improvement group and a cognitive non-improvement group. […] FIG. 2A compares CSF biochemistry in the cognitive improvement group and cognitive non-improvement group before and after treatment.
Definition of cognitive dysfunction: The Chinese version of the Montreal Cognitive Assessment (MoCA) shown in Table 1, International HIV Dementia Scale (IHDS) shown in Table 2, and Center for Epidemiological Research Depression Scale (CES-D) are used to assess patients' cognitive status. They all use Chinese questionnaires that have been validated for the evaluation of Chinese patients. The MoCA tests eight major neurocognitive domains, including short-term memory recall (no score), visuospatial ability, naming, attention, language, conceptual thinking, working memory, and orientation of time and place. […]

[4] = cited from earlier work
[5] = individual Patients 1-4 (cognitive improvement group)
[6] = individual Patients 5-7 (cognitive non-improvement group)

For `Nc1cccc2c1CN(C1CCC(=O)NC1=O)C2=O` (stereo not shown) [lenalidomide], the “change in CSF WBC after lenalidomide treatment” value ([1]; CI group, P=0.032) was “significant decline”, the “change in CSF albumin after lenalidomide treatment” value ([1]; CI group, P=0.034) was “significant decline” and the “change in CSF protein after lenalidomide treatment” value ([1]; CI group, P=0.034) was “significant decline”. For the same molecule, the “change in CSF IgG levels after lenalidomide treatment” value ([1]; CI group, P=0.050) was “significant decline”, the “Chlorine-W 24” value [1, 5] was 128 mmol/L (2×) and 131 mmol/L and 121 mmol/L and the “Protein-W 24” value [1, 5] was 1.081 g/L and 1.24 g/L and 0.745 g/L and 0.788 g/L. The “WBC-W 24” value [1, 5] was 2 ×106/L (2×) and 10 ×106/L and 0 ×106/L, the “Chlorine-W 24” value [1, 6] was 123 mmol/L (2×) and 127 mmol/L and the “Protein-W 24” value [1, 6] was 0.37 g/L and 0.908 g/L and 1.15 g/L. For the same molecule, the “WBC-W 24” value [1, 6] was 1e+06 L⁻¹ and 1e+07 L⁻¹ and 7e+06 L⁻¹, the Glucose-W23 [1, 5] was 2.4 mmol/L and 2.5 mmol/L and 3.6 mmol/L and 2.6 mmol/L and the Glucose-W23 [1, 6] was 4.7 mmol/L and 2.4 mmol/L and 2.8 mmol/L. For the same molecule, the “Δ Protein” value ([1]; CI group) was -4.4 g/L, the ΔChlorine ([1]; CI group) was 2.0 mmol/L and the ΔGlucose ([1]; CI group) was 0.4 mmol/L. The ΔWBC ([1]; CI group) was -1.18e+08 L⁻¹, the “Δ Protein” value ([1]; CNI group) was 0.3 g/L and the ΔChlorine ([1]; CNI group) was -4.0 mmol/L. For the same molecule, the ΔGlucose ([1]; CNI group) was -0.3 mmol/L, the ΔWBC ([1]; CNI group) was 7e+06 L⁻¹ and the “ICP-W 24” value [1, 5] was 120 mmH2O and 152 mmH2O and 150 mmH2O and 85 mmH2O. For the same molecule, the “ICP-W 24” value [1, 6] was 200 mmH2O and 120 mmH2O and 95 mmH2O, the ΔICP ([1]; CI group) was 10.0 mmH2O and the ΔICP ([1]; CNI group) was −20.0 mmH2O. For the same molecule, the “CES-D score for anxiety or depression, before to after treatment” value [2] was “no significant difference”, the “inhibitory effect on TNF-α relative to thalidomide” value (TNF-α) was 2000 times and the “patients whose cognitive status returned to normal” value [3] was 4 patients. For the same molecule, the bioavailability [4] was “high”.
